In patent publication US11512075B2 (priority 2017, dated 2022):
Entries after “also recorded” stand apart in the source; their conditions may differ.

Columns and labels:
[1] = system: chloroquine phosphate-induced pruritus in mice; set-up: species or system C57BL/6J mice; settings: mouse, in vivo
[2] = target: T1, human KOR (Homo sapiens, UniProt P41145); assay type: cell-based
[3] = target: T1, human KOR; assay type: binding

| Structure (SMILES) | suppression of itch (scratching) response [1] | efficacy in G protein signaling (inhibition of cAMP accumulation) [2] | affinity for the κ-OR (radioligand competition binding, Ki) [3] | KOR agonist potency [2] |
| --- | --- | --- | --- | --- |
| COC(=O)[C@@H]1C[C@H](OC(C)=O)C(=O)[C@H]2[C@@]1(C)CC[C@H]1C(=O)O[C@H](c3ccoc3)C[C@]21C [SalA, salvinorin A, reference compound] | suppressed the itch response | slightly higher affinity and efficacy |  |  |
| COC(=O)[C@@H]1C[C@H](OC(C)=O)C(=O)[C@@H]2[C@H]3C[C@@H](c4ccoc4)OC(=O)[C@@H]3CC[C@]21C [20-nor-SalA, 20-nor-salvinorin A] | suppressed the itch response; also recorded: similarly effective to SalA and another conventional agonist (U50,488H) | full agonist | high affinity | high potency |
